Test results as given in patent publication US20100292231A1, “Indazole Compounds for Treating Inflammatory Disorders, Demyelinating Disorders and Cancers” (priority 2007, published 2010).
pEC50: −log10 of the molar value. Where two headings read alike, the source gives them in different places.

Tests used:
Experiment in all cases: SelectScreen kinase specificity survey
Format in all cases: biochemical
CAMK4 (CaMKIV) = target: T1, CAMK4 (CaMKIV) (Homo sapiens, UniProt Q16566); settings: estimated, abridged dose response curve, read-out: Kinase inhibitory activity EC50
T1 construct: purchased Invitrogen, Inc. (SelectScreen platform)
How it was run: (§1)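 ATP held at 100 micromolar; every kinase had its own substrate and optical reporter. The compound was dosed in 5 increments, and a 4-parameter Hill curve gave the EC50 estimate.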

MUSK = target: T2, MUSK (Homo sapiens, UniProt O15146); settings: estimated, abridged dose response curve, read-out: Kinase inhibitory activity EC50
T2 construct: purchased Invitrogen (SelectScreen platform)
How it was run: as §1

AKT3 (PKB gamma) = target: T3, AKT3 (PKB gamma) (Homo sapiens, UniProt Q9Y243); settings: estimated, abridged dose response curve, read-out: Kinase inhibitory activity EC50
T3 construct: purchased Invitrogen (SelectScreen platform)
How it was run: as §1

MAPK10 (JNK3) = target: T4, MAPK10 (JNK3) (Homo sapiens, UniProt P53779); settings: estimated, abridged dose response curve, read-out: Kinase inhibitory activity EC50
T4 construct: purchased Invitrogen (SelectScreen platform)
How it was run: as §1

PAK6 = target: T5, PAK6 (Homo sapiens, UniProt Q9NQU5); settings: estimated, abridged dose response curve, read-out: Kinase inhibitory activity EC50
T5 construct: purchased Invitrogen (SelectScreen platform)
How it was run: as §1

BMX = target: T6, BMX (Homo sapiens, UniProt P51813); settings: estimated, abridged dose response curve, read-out: Kinase inhibitory activity EC50
T6 construct: purchased Invitrogen (SelectScreen)
How it was run: as §1

KDR (VEGFR2) = target: T7, KDR (VEGFR2) (Homo sapiens, UniProt P35968); settings: estimated, abridged dose response curve, read-out: Kinase inhibitory activity EC50
T7 construct: purchased Invitrogen, Inc. (SelectScreen platform)
How it was run: as §1

BRAF = target: T8, BRAF (Homo sapiens, UniProt P15056); settings: estimated, abridged dose response curve, read-out: Kinase inhibitory activity EC50
T8 construct: purchased Invitrogen, Inc. (SelectScreen platform)
How it was run: as §1

MAP2K2 (MEK2) = target: T9, MAP2K2 (MEK2) (Homo sapiens, UniProt P36507); settings: estimated, abridged dose response curve, read-out: Kinase inhibitory activity EC50
T9 construct: purchased Invitrogen (SelectScreen platform)
How it was run: as §1

TYRO3 (RSE) = target: T10, TYRO3 (RSE) (Homo sapiens, UniProt Q06418); settings: estimated, abridged dose response curve, read-out: Kinase inhibitory activity EC50
T10 construct: purchased Invitrogen (SelectScreen service)
How it was run: as §1

ABL1 E255K = target: T11, ABL1 E255K (Homo sapiens, UniProt P00519, E255K); settings: estimated, abridged dose response curve, read-out: Kinase inhibitory activity EC50
T11 construct: purchased Invitrogen (SelectScreen platform)
How it was run: as §1

ERBB2 (HER2) = target: T12, ERBB2 (HER2) (Homo sapiens, UniProt P04626); settings: estimated, abridged dose response curve, read-out: Kinase inhibitory activity EC50
T12 construct: purchased Invitrogen (SelectScreen service)
How it was run: as §1

GRK4 = target: T13, GRK4 (Homo sapiens, UniProt P32298)
T13 construct: purchased Invitrogen (SelectScreen platform)
How it was run: as §1

TAOK2 (TAO1) = target: T14, TAOK2 (TAO1) (Homo sapiens, UniProt Q9UL54); settings: estimated, abridged dose response curve, read-out: Kinase inhibitory activity EC50
T14 construct: purchased Invitrogen (SelectScreen platform)
How it was run: as §1

PRKCH (PKC eta) = target: T15, PRKCH (PKC eta) (Homo sapiens, UniProt P24723); settings: estimated, abridged dose response curve, read-out: Kinase inhibitory activity EC50
T15 construct: purchased Invitrogen, Inc. (SelectScreen platform)
How it was run: as §1

DAPK3 (ZIPK) = target: T16, DAPK3 (ZIPK) (Homo sapiens, UniProt O43293); settings: estimated, abridged dose response curve, read-out: Kinase inhibitory activity EC50
T16 construct: purchased Invitrogen, Inc. (SelectScreen platform)
How it was run: as §1

CSF1R (FMS) = target: T17, CSF1R (FMS) (Homo sapiens, UniProt P07333); settings: estimated, abridged dose response curve, read-out: Kinase inhibitory activity EC50
T17 construct: purchased Invitrogen (SelectScreen platform)
How it was run: as §1

PRKD1 (PKC mu, PKD1) = target: T18, PRKD1 (PKC mu, PKD1) (Homo sapiens, UniProt Q15139); settings: estimated, abridged dose response curve, read-out: Kinase inhibitory activity EC50
T18 construct: purchased Invitrogen, Inc. (SelectScreen platform)
How it was run: as §1

MAP4K5 (KHS1) = target: T19, MAP4K5 (KHS1) (Homo sapiens, UniProt Q9Y4K4); settings: estimated, abridged dose response curve, read-out: Kinase inhibitory activity EC50
T19 construct: purchased Invitrogen (SelectScreen platform)
How it was run: as §1

BRAF V599E = target: T20, BRAF V599E (Homo sapiens, UniProt P15056, V600E); settings: estimated, abridged dose response curve, read-out: Kinase inhibitory activity EC50
T20 construct: purchased Invitrogen, Inc. (SelectScreen platform)
How it was run: as §1

PTK2B (FAK2, PYK2) = target: T21, PTK2B (FAK2, PYK2) (Homo sapiens, UniProt Q14289); settings: estimated, abridged dose response curve, read-out: Kinase inhibitory activity EC50
T21 construct: purchased Invitrogen (SelectScreen service)
How it was run: as §1

ABL1 = target: T22, ABL1 (Homo sapiens, UniProt P00519); settings: estimated, abridged dose response curve, read-out: Kinase inhibitory activity EC50
T22 construct: purchased Invitrogen (SelectScreen platform)
How it was run: as §1

PRKD2 (PKD2) = target: T23, PRKD2 (PKD2) (Homo sapiens, UniProt Q9BZL6); settings: estimated, abridged dose response curve, read-out: Kinase inhibitory activity EC50
T23 construct: purchased Invitrogen, Inc. (SelectScreen platform)
How it was run: as §1

NEK1 = target: T24, NEK1 (Homo sapiens, UniProt Q96PY6); settings: estimated, abridged dose response curve, read-out: Kinase inhibitory activity EC50
T24 construct: purchased Invitrogen, Inc. (SelectScreen service)
How it was run: as §1

SRMS (Srm) = target: T25, SRMS (Srm) (Homo sapiens, UniProt Q9H3Y6); settings: estimated, abridged dose response curve, read-out: Kinase inhibitory activity EC50
T25 construct: purchased Invitrogen (SelectScreen)
How it was run: as §1

FGFR1 = target: T26, FGFR1 (Homo sapiens, UniProt P11362); settings: estimated, abridged dose response curve, read-out: Kinase inhibitory activity EC50
T26 construct: purchased Invitrogen (SelectScreen service)
How it was run: as §1

MAPK13 (p38 delta) = target: T27, MAPK13 (p38 delta) (Homo sapiens, UniProt O15264); settings: estimated, abridged dose response curve, read-out: Kinase inhibitory activity EC50
T27 construct: purchased Invitrogen, Inc. (SelectScreen service)
How it was run: as §1

T6 sequence (P51813 whole entry): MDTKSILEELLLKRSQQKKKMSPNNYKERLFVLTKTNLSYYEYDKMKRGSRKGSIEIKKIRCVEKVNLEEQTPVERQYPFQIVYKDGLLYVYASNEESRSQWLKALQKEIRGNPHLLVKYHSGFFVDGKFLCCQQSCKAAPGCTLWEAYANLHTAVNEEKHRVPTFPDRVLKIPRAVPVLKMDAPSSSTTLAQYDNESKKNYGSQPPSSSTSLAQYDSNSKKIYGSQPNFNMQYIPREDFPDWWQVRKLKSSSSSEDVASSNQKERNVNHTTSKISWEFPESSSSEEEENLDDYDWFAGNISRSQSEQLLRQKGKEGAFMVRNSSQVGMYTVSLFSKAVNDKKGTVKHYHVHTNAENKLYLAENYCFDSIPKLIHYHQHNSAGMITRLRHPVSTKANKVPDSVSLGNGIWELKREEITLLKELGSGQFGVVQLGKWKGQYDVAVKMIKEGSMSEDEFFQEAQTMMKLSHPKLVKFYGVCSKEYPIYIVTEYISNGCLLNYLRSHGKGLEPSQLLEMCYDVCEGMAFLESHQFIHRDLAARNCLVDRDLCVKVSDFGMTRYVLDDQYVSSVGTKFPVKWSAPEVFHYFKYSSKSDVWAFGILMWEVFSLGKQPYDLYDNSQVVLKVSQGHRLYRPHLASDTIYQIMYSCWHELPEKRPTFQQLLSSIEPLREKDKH
T17 sequence (P07333 20-972): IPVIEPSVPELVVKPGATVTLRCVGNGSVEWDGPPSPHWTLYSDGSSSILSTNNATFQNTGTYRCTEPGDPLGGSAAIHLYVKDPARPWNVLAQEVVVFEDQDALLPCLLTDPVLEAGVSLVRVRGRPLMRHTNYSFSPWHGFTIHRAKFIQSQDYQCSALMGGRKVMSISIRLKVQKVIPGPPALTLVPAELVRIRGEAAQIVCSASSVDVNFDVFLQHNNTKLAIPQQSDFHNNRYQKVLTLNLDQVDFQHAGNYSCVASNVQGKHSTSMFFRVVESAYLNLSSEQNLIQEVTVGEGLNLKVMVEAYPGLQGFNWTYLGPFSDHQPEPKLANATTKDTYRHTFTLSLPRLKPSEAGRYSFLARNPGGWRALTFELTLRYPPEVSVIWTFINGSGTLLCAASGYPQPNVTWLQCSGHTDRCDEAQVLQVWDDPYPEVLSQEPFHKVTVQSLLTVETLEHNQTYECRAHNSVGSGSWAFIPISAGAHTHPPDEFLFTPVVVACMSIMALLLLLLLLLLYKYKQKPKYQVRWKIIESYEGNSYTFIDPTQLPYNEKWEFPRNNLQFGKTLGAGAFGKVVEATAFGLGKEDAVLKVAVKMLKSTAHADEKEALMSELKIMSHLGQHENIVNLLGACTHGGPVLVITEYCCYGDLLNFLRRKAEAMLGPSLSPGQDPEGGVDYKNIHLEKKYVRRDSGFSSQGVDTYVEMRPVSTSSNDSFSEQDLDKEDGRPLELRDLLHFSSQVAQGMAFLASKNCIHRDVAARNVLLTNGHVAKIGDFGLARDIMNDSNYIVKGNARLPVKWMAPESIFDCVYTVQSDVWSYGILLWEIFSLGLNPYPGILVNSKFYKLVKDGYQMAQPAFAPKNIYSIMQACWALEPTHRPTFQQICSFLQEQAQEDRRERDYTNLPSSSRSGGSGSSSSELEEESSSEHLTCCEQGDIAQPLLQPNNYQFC
T8 sequence (P15056 whole entry): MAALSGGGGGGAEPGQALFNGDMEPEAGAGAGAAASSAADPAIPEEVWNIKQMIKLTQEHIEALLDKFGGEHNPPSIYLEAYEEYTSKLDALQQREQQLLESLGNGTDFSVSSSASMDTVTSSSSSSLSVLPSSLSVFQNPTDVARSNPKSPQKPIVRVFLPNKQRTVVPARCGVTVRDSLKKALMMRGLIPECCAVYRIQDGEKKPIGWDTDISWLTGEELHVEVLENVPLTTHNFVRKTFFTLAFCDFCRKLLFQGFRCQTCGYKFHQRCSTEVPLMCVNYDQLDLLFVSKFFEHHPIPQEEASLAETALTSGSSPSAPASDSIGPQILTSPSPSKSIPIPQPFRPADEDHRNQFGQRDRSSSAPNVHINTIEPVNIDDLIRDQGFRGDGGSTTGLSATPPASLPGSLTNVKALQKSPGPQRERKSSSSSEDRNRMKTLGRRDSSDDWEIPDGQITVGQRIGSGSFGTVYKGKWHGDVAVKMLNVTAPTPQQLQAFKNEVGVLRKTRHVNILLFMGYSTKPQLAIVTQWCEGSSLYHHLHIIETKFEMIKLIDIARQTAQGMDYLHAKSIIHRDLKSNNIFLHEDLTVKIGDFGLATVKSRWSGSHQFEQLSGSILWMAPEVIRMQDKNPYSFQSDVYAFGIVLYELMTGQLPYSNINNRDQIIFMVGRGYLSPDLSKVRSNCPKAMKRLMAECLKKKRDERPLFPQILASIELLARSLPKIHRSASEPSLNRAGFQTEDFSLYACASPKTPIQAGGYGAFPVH
T9 sequence (P36507 whole entry): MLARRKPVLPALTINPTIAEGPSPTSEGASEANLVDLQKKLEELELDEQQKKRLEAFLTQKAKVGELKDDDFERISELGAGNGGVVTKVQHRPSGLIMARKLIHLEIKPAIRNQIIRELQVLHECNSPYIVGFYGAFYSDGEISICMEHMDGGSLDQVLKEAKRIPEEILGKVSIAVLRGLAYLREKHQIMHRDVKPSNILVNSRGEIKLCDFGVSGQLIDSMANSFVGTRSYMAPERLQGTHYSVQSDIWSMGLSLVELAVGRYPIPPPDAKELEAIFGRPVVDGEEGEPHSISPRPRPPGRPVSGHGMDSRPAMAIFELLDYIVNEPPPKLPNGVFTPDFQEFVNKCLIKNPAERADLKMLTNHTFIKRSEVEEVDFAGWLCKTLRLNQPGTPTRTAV
T12 sequence (P04626 23-1255): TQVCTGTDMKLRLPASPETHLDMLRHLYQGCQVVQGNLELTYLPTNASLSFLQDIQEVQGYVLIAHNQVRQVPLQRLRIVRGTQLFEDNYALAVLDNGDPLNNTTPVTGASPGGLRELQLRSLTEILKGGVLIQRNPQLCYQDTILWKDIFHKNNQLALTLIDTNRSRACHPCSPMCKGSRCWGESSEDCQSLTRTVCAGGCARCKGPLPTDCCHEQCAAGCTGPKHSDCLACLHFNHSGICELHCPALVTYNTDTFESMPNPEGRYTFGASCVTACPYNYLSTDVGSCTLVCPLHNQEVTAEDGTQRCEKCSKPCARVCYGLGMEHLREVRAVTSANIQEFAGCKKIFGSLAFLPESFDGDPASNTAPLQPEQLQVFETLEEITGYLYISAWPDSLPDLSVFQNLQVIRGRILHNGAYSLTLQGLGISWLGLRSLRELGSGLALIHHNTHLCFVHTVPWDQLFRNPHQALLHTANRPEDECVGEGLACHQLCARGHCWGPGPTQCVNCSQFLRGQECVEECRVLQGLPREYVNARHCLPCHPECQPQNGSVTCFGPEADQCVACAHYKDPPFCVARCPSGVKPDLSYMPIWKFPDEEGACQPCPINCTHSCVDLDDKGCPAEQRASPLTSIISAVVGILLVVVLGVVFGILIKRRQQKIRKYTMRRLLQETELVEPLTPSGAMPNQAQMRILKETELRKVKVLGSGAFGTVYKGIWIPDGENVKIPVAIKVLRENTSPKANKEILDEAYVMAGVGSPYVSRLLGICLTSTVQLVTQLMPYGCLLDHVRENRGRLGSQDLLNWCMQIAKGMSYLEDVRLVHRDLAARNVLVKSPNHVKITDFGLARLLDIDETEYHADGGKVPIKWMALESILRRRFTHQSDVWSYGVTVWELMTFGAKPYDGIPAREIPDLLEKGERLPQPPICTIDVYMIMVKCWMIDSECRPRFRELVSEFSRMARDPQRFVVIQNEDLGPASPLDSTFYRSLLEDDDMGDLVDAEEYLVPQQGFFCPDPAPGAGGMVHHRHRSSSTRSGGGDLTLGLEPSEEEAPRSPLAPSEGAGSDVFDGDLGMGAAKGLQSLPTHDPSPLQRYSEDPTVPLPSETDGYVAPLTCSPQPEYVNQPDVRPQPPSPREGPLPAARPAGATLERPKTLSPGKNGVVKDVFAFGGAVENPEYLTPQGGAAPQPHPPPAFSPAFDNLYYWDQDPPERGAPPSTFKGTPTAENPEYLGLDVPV
T21 sequence (Q14289 whole entry): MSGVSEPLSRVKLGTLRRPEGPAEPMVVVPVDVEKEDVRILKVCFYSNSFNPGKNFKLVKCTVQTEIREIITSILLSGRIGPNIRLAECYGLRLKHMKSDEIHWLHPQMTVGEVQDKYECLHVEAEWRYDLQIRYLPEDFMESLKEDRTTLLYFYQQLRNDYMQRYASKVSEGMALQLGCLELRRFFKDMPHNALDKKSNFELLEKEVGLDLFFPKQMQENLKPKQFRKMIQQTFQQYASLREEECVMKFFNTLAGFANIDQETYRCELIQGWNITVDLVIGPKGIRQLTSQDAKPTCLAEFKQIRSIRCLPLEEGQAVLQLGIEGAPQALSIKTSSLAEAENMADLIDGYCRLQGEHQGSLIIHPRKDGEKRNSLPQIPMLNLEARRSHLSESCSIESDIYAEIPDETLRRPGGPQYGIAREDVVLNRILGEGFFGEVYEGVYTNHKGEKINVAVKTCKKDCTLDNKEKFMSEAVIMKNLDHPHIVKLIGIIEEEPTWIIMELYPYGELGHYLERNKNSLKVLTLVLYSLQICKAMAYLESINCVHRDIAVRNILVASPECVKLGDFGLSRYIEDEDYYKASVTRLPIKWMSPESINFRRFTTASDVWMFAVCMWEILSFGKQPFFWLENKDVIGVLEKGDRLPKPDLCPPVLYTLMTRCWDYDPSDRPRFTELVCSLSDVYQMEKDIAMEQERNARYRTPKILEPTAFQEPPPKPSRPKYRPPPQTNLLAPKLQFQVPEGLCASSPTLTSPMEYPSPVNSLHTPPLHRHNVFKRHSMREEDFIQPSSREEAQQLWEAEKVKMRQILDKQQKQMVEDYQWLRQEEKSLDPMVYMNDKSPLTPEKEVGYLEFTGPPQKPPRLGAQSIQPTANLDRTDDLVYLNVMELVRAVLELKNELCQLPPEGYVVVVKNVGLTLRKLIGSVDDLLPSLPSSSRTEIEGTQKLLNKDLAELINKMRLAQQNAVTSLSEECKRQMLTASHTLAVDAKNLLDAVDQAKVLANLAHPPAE

Row | SMILES | pEC50 (CAMK4 (CaMKIV)) | pEC50 (MUSK) | pEC50 (AKT3 (PKB gamma)) | pEC50 (MAPK10 (JNK3)) | pEC50 (PAK6) | pEC50 (BMX) | pEC50 (KDR (VEGFR2)) | pEC50 (BRAF) | pEC50 (MAP2K2 (MEK2)) | pEC50 (TYRO3 (RSE)) | pEC50 (ABL1 E255K) | pEC50 (ERBB2 (HER2)) | pEC50 (TAOK2 (TAO1)) | pEC50 (PRKCH (PKC eta)) | pEC50 (DAPK3 (ZIPK)) | pEC50 (CSF1R (FMS)) | pEC50 (PRKD1 (PKC mu, PKD1)) | pEC50 (MAP4K5 (KHS1)) | pEC50 (BRAF V599E) | pEC50 (PTK2B (FAK2, PYK2)) | other results
1 | CN(C)CCCNc1ccc2ncn3c4ccc5[nH]ncc5c4c(=O)c1c23 [Compound (IV)] | < 5.30 | 5.84 | < 5.30 | 5.55 | < 5.30 | 5.49 | 6.08 | 5.84 | < 5.30 | 5.45 | 5.43 | < 5.30 | < 5.30 | 5.67 | 6.01 | 6.69 | 6.31 | < 5.30 | 5.93 | < 5.30 | pEC50 (GRK4; GRK4, estimated, abridged dose response curve, read-out: Kinase inhibitory activity EC50): < 5.30; pEC50 (ABL1): 5.42; pEC50 (PRKD2 (PKD2)): 6.12; pEC50 (NEK1): < 5.30; pEC50 (SRMS (Srm)): < 5.30; pEC50 (FGFR1): 5.45; pEC50 (MAPK13 (p38 delta)): < 5.30
2 | CCN(CC)CCNc1ccc2ncn3c4ccc(O)cc4c(=O)c1c23 [Symadex, 5-(2-(diethylamino)ethylamino)-8-hydroxy-6H-imidazo[4,5,1-de]acridin-6-one, reference compound] | < 5.30 | 5.43 | < 5.30 | < 5.30 | < 5.30 | < 5.30 | 5.80 | 5.35 | < 5.30 | 5.61 | < 5.30 | < 5.30 | < 5.30 | < 5.30 | < 5.30 | 6.37 | 6.66 | 5.61 | 5.47 | < 5.30 | pEC50 (GRK4): < 5.30; pEC50 (ABL1): < 5.30; pEC50 (PRKD2 (PKD2)): 6.53; pEC50 (NEK1): 5.47; pEC50 (SRMS (Srm)): < 5.30; pEC50 (FGFR1): 5.62; pEC50 (MAPK13 (p38 delta)): < 5.30
